Assays:
[1] = Step-through passive avoidance learning test; assay type: in vivo, male ICR strain mouse (5-weeks-old); conditions: 3 mg/kg p.o.
Experimental: (§1) A male ICR strain mouse (5-weeks-old) was admitted in a bright chamber of a step-through passive avoidance learning device. After 60 seconds, a guillotine door was opened. Just after the mouse entered a dark room, the guillotine door was shut, and a foot shock of 0.15 mA was given to the mouse for 5 seconds. This operation was conducted until the mouse stayed in the bright room for more than 1 minute. Then, the mouse was taken out and 3 mg/kg of the compound of the formula was orally administered, and the mouse was returned to a home cage.
(§2) After 24 hours, the mouse was admitted into the bright chamber, and after 60 seconds, the guillotine door was opened and the time required for the mouse to enter in the dark room was measured as 300 seconds at longest. Furthermore, 3 mg/kg of the compound of the formula was orally administered, and the spontaneous movement quantity for 4 hours after the oral administration was measured by an animex and the total quantity was calculated. Note, 1% Tween was orally administered to the control group.

[2] = Spontaneous movement quantity measured by animex; assay type: in vivo, male ICR strain mouse (5-weeks-old); conditions: 3 mg/kg p.o.; 4 hours after administration; control 5123 ± 259
Experimental: as §1, §2

[3] = system: locomotor activity by methamphethamine; experiment: Methamphethamine-induced locomotor activity measured by animex; assay type: in vivo, male ICR strain mouse (5-weeks-old); conditions: 3 mg/kg p.o.
Experimental: The compound of the formula (3 mg/kg) was orally administered to a male ICR strain mouse (5-weeks-old), and after 2 hours, 2 mg/kg of methamphethamine was intraperitoneally administered. The locomotor activity for every 15 minutes was measured by an animex, and the measurement was conducted for 120 minutes. To the control group, 1% Tween 80 was administered instead of the compound of the formula, and after 2 hours, 2 mg/kg of methamphethamine was intraperitoneally administered. The locomotor activity was similarly measured.

[4] = system: locomotor activity by scopolamine; experiment: Scopolamine-induced locomotor activity measured by animex; assay type: in vivo, male ICR strain mouse (6-weeks-old); conditions: 3 mg/kg p.o.
Experimental: In the same manner as described in Test Example 2, 3 mg/kg of the compound of the formula was orally administered to a male ICR strain mouse (6-weeks-old), and after 2 hours, 2 mg/kg of scopolamine was intraperitoneally administered. For 120 minutes from the point of the application, the locomotor activity was measured by an animex. To the control group, 1% Tween 80 was orally administered and 2 mg/kg of scopolamine was intraperitoneally administered, and the locomotor activity was similarly measured.

[5] = system: acetylcholine (ACh) content at cerebral cortex; experiment: ACh content at cerebral cortex (HPLC-ECD), with or without scopolamine; assay type: in vivo, male ICR strain mouse (9-weeks-old)
Experimental: (§3) The compound of the formula was orally administered to a male ICR strain mouse (9-weeks-old), and after 2 hours, 2 mg/kg of scopolamine was applied to the abdominal cavity. After 30 minutes, the mouse was irradiated with 10 KW of microwaves for 0.5 seconds, and the brain was extracted and then divided into two parts, that is, the cerebral cortex (inclusive of hippocampus) and the subcerebral part. The wet weights were measured and the acetylcholine (hereinafter referred to as "ACh") contents were measured according to the following method.
(§4) Each part of the brain was homogenized by 0.1N perchloric acid (HClO4)and subjected to centrifugal separation under 30000 g for 15 minutes. The supernatant was passed through a 0.45 μm microfilter and poured into HPLC-ECD.
(§5) The measurement conditions were as follows.
(§6) Moving phase: phosphate buffer (pH 8.0)
(§7) Enzyme immobilized column: Eicom AC-Enzmpak
(§8) Anakyzing column: Eicom AC-ODS (4.6 mm in diameter and 250 mm in length)
(§9) The compound of the formula was orally administered while scopolamine was not applied, and after 2 hours and 30 minutes, the ACh content was determined in the same manner as described above.

[6] = system: acetylcholine (ACh) content at subcerebral part; experiment: ACh content at subcerebral part (HPLC-ECD), with or without scopolamine; assay type: in vivo, male ICR strain mouse (9-weeks-old)
Experimental: as §3, §4, §5, §6, §7, §8, §9

[7] = Acute toxicity by oral administration, rats; conditions: rat, in vivo
[8] = Acute toxicity by oral administration, mice
[9] = also under the application of scopolamine

COc1cc2c(c(OC)c1OC)-c1c(cc(OC)c(OC)c1OC)C[C@](C)(O)[C@@H](C)C2 [compound of the formula]
avoidance learning function (in words) [1]: a reduction of the avoidance learning function is not observed | time required for mouse to enter dark room ([1]; 24 hours after foot shock training, measured as 300 seconds at longest, control 229 ± 30.4): > 300 s | sum of spontaneous movement quantity for 4 hours [2]: 6693 ± 474 | locomotor activity by methamphethamine (in words) [3]: controls the locomotor activity by methamphethamine | locomotor activity after 15 minutes ([3]; 2 h before 2 mg/kg i.p. methamphethamine, after 15 minutes, control 1250 ± 68): 1034 ± 111 | locomotor activity after 30 minutes ([3]; 2 h before 2 mg/kg i.p. methamphethamine, after 30 minutes, control 1551 ± 33): 1295 ± 34 | locomotor activity after 45 minutes ([3]; 2 h before 2 mg/kg i.p. methamphethamine, after 45 minutes, control 1511 ± 32): 1245 ± 50 | locomotor activity after 60 minutes ([3]; 2 h before 2 mg/kg i.p. methamphethamine, after 60 minutes, control 1429 ± 38): 1156 ± 49 | locomotor activity after 75 minutes ([3]; 2 h before 2 mg/kg i.p. methamphethamine, after 75 minutes, control 1344 ± 34): 1087 ± 40 | locomotor activity after 90 minutes ([3]; 2 h before 2 mg/kg i.p. methamphethamine, after 90 minutes, control 1228 ± 44): 989 ± 53 | locomotor activity after 120 minutes ([3]; 2 h before 2 mg/kg i.p. methamphethamine, after 120 minutes, control 1126 ± 28): 898 ± 60 | locomotor activity by scopolamine (in words) [4]: controls the locomotor activity by scopolamine | locomotor activity ([4]; 2 h before 2 mg/kg i.p. scopolamine, for 120 minutes, control 6353±296): 3991±389 | ACh content at cerebral cortex ([5]; 3 mg/kg p.o., 2 mg/kg scopolamine after 2 h, scopolamine alone 11.4): 13.9 nM/g of wet weight | ACh content at cerebral cortex ([5]; 3 mg/kg p.o., no scopolamine, 2 h 30 min, untreated 15.7): 20.9 nM/g of wet weight | ACh content at cerebral cortex ([5]; 30 mg/kg p.o., 2 mg/kg scopolamine after 2 h, scopolamine alone 11.4): 13.7 nM/g of wet weight | ACh content at cerebral cortex ([5]; 30 mg/kg p.o., no scopolamine, 2 h 30 min, untreated 15.7): 21.7 nM/g of wet weight | ACh content at cerebral cortex (in words) [5, 9]: increases the ACh contents at the cerebral cortex | ACh content at subcerebral part ([6]; 3 mg/kg p.o., 2 mg/kg scopolamine after 2 h, scopolamine alone 23.3): 26.9 nM/g of wet weight | ACh content at subcerebral part ([6]; 3 mg/kg p.o., no scopolamine, 2 h 30 min, untreated 27.8): 35.0 nM/g of wet weight | ACh content at subcerebral part ([6]; 30 mg/kg p.o., 2 mg/kg scopolamine after 2 h, scopolamine alone 23.3): 26.1 nM/g of wet weight | ACh content at subcerebral part ([6]; 30 mg/kg p.o., no scopolamine, 2 h 30 min, untreated 27.8): 38.9 nM/g of wet weight | ACh content at subcerebral part (in words) [6, 9]: increases the ACh contents at the cerebral cortex and the subcerebral part | LD50 [7]: 900 mg/kg | LD50 ([8]; mouse, in vivo, po): 900 mg/kg | toxicity (in words) ([8]; oral acute toxicity, mice and rats): low toxicity
